Measurements taken from patent US20260132123A1, “ABAD INHIBITOR COMPOUNDS” (UNIVERSITY COURT OF THE UNIVERSITY OF ST ANDREWS, priority 2021, published 2026).
pEC50: −log10 of the molar value.

Key:
[1] = system: mtsABAD HEK293 cells; experiment: Alamar Blue cell viability assay; format: cell-based, human; conditions: 50 μM compound
Method: Cell viability was assessed via fluorescence change using the commercially available Alamar Blue from ThermoFisher. HEK293 cells overexpressing mts17β-HSD10 were cultured in phenol-red free media (10% FBS, 1 mM sodium pyruvate, 100 units penicillin, 0.1 mg/mL streptomycin and 2 mM L-glutamine) and seeded at a density of 10,000 cells per well (100 μL, 96 well plates). […] Treated cells were then incubated at 37° C. and CO2 (5%) for 24 hours before the assay was performed as per the manufacturer's instructions. Fluorescence was measured at 530 nm excitation and 590 nm emission using a SpectraMaxM2e spectrophotometer.

[2] = target: T1, 17β-HSD10 (Homo sapiens, UniProt Q99714); experiment: 17β-HSD10 (ABAD) enzyme inhibition assay, NADH oxidation read at 340 nm (primary screen and dose response); format: biochemical; conditions: for pEC50 / Max. Effect (%) / Hill Slope / Max. Fit / Min. Fit: recombinant 17βHSD10 enzyme assay; for Hill Slope / Max. Fit / Min. Fit: curve fit
T1 construct: Histev (histidine tag with TEV site) (N, cleaved yes); made in house; host or cells: E. coli BL21-CodonPlus
T1 sequence (Q99714 1-261): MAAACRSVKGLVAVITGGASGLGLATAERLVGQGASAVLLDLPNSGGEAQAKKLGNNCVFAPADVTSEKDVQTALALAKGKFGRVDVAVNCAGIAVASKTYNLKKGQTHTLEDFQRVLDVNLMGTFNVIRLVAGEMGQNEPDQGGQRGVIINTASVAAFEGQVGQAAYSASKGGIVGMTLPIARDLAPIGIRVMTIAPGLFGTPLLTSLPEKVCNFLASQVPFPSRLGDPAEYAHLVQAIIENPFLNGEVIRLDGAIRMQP
Procedure, shortened: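 Screening used a 35 min room-temperature endpoint A340 read after compound (10 μM) and enzyme (2.5 nM, E. coli-expressed, His-tag removed) preincubated 15 min, then 100 μM NADH plus acetoacetyl-CoA added. Dose-response runs tracked absorbance kinetically 45 min; buffer pH 7.4 Tris with BSA, DTT.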

[3] = system: mtsABAD HEK293 cells; experiment: Lactate dehydrogenase (LDH) cytotoxicity assay; format: cell-based, human; conditions: 50 μM compound
Method: Cell cytotoxicity was assessed via the measurement of lactate dehydrogenase leakage into the culture medium using a commercially available kit from Pierce (Thermo Scientific cat no. 88953). This was carried out in accordance with the kit guidelines, with the activity of Lactate Dehydrogenase (LDH) being calculated from the change in absorbance at […] as NADH is reduced. HEK293 cells overexpressing mts17β-HSD10 were cultured in phenol-red free media (10% fetal bovine serum (FBS), 1 mM sodium pyruvate, 100 units penicillin, 0.1 mg/mL streptomycin and 2 mM L-glutamine) and seeded at a density of 10,000 cells per well (100 μL, 96 well plates). […] Treated cells were incubated at 37° C. and CO2 (5%) for 24 hours before the LDH assay was performed as per the manufacturer's instructions. Spontaneous control (water) and maximum control (lysis buffer) used in accordance with the kit guide. Absorbance was measured at 490 nm and 680 nm using a SpectraMaxM2e spectrophotometer. The measured LDH activity was used to calculate % cytotoxicity using the following equation: […]

Row | Structure (SMILES) | Alamar Blue % Viability (50 μM Dose) [1] [%] | pEC50 [2] | Max. Effect (%) [2] [%] | LDH % Toxicity (50 μM Dose) [3] [%] | Hill Slope [2] | Max. Fit [2] | Min. Fit [2] | Alamar Blue % Viability (50 μM Dose) ([1]; listed as ESC1002203-01) [%] | 17β-HSD10 / ABAD activity in words (SAR discussion) [2] | fold less potent than ESC1002033 [2] | LDH % Toxicity (50 μM Dose) ([3]; listed as ESC1002203-01) [%] | Alamar Blue % Viability (50 μM Dose) ([1]; listed as ESC1002205-01) [%] | LDH % Toxicity (50 μM Dose) ([3]; listed as ESC1002205-01) [%] | Alamar Blue % Viability (50 μM Dose) ([1]; listed as ESC1002206-01) [%] | LDH % Toxicity (50 μM Dose) ([3]; listed as ESC1002206-01) [%]
1 | CC(=O)N(CC(C)C)c1cccc(N(C)Cc2cnc[nH]2)c1 [ESC1002171, N-[3-[1H-imidazol-5-ylmethyl(methyl)amino]phenyl]-N-isobutyl-acetamide] | 86.843 | < 4.70 | 34 | 5.933 |  |  |  |  |  |  |  |  |  |  | 
2 | CC(C)CN(C(=O)c1cccc2ccccc12)c1cccc(N(C)Cc2cnc[nH]2)c1 [ESC1002172, N-[3-[1H-imidazol-5-ylmethyl(methyl)amino]phenyl]-N-isobutyl-naphthalene-1-carboxamide] | 85.337 | 5.55 | 87 | 5.472 | 1.1 | 96 | 0 |  |  |  |  |  |  |  | 
3 | COc1ccc(C(=O)N(CC(C)C)c2cccc(N(C)Cc3cnc[nH]3)c2)cc1 [ESC1002182, N-[3-[1H-imidazol-5-ylmethyl(methyl)amino]phenyl]-N-isobutyl-4-methoxy-benzamide] | 87.643 | 6.48 | 99 | 4.733 | 0.8 | 103 | 0 |  |  |  |  |  |  |  | 
4 | CC(C)CN(C(=O)c1ccc(Cl)cc1)c1cccc(N(C)Cc2cnc[nH]2)c1 [ESC1002183, 4-chloro-N-[3-[1H-imidazol-5-ylmethyl(methyl)amino]phenyl]-N-isobutyl-benzamide] | 89.373 | 6.11 | 95 | 5.082 | 1.2 | 97 | 0 |  |  |  |  |  |  |  | 
5 | CC(C)CN(C(=O)c1ccccc1F)c1cccc(N(C)Cc2cncn2C)c1 [ESC1002199] | 89.524 | < 4.70 | 13 | 5.028 |  |  |  |  |  |  |  |  |  |  | 
6 | CC(C)CN(C(=O)c1ccccc1F)c1cccc(N(C)Cc2cn(C)cn2)c1 [ESC1002200] | 79.220 | 5.04 | 67 | 5.136 | 1 | 96 | 0 |  |  |  |  |  |  |  | 
7 | CC(C)CN(C(=O)c1ccccc1F)c1cccc(N(C)Cc2ncc[nH]2)c1 [ESC1002201] | 80.481 | < 4.70 | 41 | 5.842 |  |  |  |  |  |  |  |  |  |  | 
8 | CC(C)CN(C(=O)c1ccccc1F)c1cccc(N(C)Cc2nccn2C)c1 [ESC1002202] | 81.531 | 5.00 | 57 | 2.542 | 1.3 | 79 | 0 |  |  |  |  |  |  |  | 
9 | Cc1ncc(CN(C)c2cccc(N(CC(C)C)C(=O)c3ccccc3F)c2)[nH]1 [ESC1002203] |  | 6.28 | 97 |  | 1.1 | 98 | 0 | 87.491 | only slightly reduced ABAD inhibition levels | approximately 3 fold | 6.638 |  |  |  | 
10 | CC(C)CN(C(=O)c1ccccc1F)c1cccc(N(C)Cc2ccn[nH]2)c1 [ESC1002205] |  |  | 96 |  | 1.1 | 97 | 0 |  |  |  |  | 95.933 | 5.840 |  | 
11 | CC(C)CN(C(=O)c1ccccc1F)c1cccc(N(C)Cc2ccn[nH]2)c1 [ESC1002206] |  |  | 79 |  | 0.93 | 107 | 0 |  |  |  |  |  |  | 95.609 | 5.918
12 | CC(C)CN(C(=O)c1ccccc1F)c1cccc(N(C)Cc2cncs2)c1 [ESC1002208] | 65.577 | < 4.70 | 50 | 20.084 |  |  |  |  |  |  |  |  |  |  | 
